Data published in US20170190705A1, “Compositions and Methods for Inhibiting BMP” (THE BRIGHAM AND WOMAN'S HOSPITAL, INC., priority 2014, published 2017).

Assays:
Assay type in all cases: biochemical
MER = target: T1, MER (Homo sapiens, UniProt Q12866); test: Kinome profiling MER; details: read-out: Inhibitory activity MER; for inhibition at 0.1 µM: 100 nM
T1 sequence (Q12866 21-999): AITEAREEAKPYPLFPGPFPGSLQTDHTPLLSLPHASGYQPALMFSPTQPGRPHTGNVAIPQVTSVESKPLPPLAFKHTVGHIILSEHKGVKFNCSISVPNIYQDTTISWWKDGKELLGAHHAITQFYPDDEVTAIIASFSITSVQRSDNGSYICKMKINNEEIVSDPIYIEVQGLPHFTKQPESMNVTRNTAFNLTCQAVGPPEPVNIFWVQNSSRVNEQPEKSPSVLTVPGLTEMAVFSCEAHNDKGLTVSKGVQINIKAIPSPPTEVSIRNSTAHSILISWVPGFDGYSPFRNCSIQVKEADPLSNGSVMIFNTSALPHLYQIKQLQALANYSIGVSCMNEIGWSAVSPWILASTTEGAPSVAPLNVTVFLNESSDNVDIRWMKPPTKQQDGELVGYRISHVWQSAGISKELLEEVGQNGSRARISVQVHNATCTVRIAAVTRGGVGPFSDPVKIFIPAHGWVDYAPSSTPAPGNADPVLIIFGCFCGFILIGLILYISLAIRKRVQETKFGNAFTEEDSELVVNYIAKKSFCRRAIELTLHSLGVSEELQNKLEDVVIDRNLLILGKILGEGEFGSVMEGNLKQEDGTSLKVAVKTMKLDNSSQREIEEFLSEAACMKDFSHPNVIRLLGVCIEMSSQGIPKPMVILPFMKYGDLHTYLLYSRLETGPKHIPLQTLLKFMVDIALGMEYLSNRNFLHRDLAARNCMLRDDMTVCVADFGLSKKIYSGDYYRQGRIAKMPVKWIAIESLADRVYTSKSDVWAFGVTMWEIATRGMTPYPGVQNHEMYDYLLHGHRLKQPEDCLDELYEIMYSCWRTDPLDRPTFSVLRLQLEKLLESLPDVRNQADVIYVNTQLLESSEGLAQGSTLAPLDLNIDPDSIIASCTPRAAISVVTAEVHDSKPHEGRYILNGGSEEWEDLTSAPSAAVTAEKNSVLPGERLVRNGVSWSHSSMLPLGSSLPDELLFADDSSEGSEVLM
Method: (§1) . The kinome-wide selectivity was determined following the methods previously reported by Mohedas et al., ACS Chem Biol 2013, 8, 1291-1302 and Sanvitale et al., PLoS One 2013, 8, e62721.

CK1α = CK1α (Homo sapiens, UniProt P48729); test: Kinome profiling CK1α; details: read-out: Inhibitory activity CK1α; for inhibition at 0.1 µM: 100 nM
Chain of CK1α (P48729 whole entry): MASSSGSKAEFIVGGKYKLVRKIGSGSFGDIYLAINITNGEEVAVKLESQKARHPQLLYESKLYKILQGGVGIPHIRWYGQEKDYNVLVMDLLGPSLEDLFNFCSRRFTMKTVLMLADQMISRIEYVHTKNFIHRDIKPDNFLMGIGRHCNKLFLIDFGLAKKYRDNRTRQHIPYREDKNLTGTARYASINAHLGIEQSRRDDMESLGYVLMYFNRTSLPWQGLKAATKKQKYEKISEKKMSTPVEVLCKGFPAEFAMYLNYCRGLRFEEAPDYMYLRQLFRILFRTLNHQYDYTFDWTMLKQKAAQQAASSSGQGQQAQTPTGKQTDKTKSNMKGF
Method: as §1

RSK1 = RSK1 (Homo sapiens, UniProt Q15418); test: Kinome profiling RSK1; details: read-out: Inhibitory activity RSK1; for inhibition at 0.1 µM: 100 nM
Chain of RSK1 (Q15418 whole entry): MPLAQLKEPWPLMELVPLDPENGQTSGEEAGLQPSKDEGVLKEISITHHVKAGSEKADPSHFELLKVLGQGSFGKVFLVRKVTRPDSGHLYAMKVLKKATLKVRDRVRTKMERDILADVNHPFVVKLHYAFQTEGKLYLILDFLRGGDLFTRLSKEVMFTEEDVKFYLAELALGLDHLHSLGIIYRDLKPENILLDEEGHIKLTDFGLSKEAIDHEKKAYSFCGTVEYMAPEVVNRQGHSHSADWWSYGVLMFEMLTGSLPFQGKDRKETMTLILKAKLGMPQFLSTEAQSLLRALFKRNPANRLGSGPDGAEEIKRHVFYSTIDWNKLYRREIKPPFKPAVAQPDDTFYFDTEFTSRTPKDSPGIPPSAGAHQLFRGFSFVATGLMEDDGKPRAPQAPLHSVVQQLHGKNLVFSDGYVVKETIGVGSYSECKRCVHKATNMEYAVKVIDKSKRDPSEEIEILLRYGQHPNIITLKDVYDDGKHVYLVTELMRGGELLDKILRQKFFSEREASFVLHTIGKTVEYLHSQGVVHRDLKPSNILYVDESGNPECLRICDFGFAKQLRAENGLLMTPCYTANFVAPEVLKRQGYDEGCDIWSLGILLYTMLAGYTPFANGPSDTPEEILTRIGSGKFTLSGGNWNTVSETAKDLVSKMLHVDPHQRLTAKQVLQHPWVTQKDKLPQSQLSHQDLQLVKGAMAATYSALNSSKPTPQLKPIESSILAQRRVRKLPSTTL
Method: as §1

NEK6 = NEK6 (Homo sapiens, UniProt Q9HC98); test: Kinome profiling NEK6; details: read-out: Inhibitory activity NEK6; for inhibition at 0.1 µM: 100 nM
Chain of NEK6 (Q9HC98 whole entry): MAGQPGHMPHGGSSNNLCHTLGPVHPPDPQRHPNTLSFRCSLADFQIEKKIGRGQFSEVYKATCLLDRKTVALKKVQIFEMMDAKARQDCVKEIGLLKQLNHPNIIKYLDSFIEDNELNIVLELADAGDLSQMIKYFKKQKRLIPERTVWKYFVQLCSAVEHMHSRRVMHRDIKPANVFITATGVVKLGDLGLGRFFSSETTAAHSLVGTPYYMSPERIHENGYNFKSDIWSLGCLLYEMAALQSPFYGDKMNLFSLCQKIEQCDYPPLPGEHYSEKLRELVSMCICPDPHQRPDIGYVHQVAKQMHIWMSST
Method: as §1

PAK6 = PAK6 (Homo sapiens, UniProt Q9NQU5); test: Kinome profiling PAK6; details: read-out: Inhibitory activity PAK6; for inhibition at 0.1 µM: 100 nM
Chain of PAK6 (Q9NQU5 whole entry): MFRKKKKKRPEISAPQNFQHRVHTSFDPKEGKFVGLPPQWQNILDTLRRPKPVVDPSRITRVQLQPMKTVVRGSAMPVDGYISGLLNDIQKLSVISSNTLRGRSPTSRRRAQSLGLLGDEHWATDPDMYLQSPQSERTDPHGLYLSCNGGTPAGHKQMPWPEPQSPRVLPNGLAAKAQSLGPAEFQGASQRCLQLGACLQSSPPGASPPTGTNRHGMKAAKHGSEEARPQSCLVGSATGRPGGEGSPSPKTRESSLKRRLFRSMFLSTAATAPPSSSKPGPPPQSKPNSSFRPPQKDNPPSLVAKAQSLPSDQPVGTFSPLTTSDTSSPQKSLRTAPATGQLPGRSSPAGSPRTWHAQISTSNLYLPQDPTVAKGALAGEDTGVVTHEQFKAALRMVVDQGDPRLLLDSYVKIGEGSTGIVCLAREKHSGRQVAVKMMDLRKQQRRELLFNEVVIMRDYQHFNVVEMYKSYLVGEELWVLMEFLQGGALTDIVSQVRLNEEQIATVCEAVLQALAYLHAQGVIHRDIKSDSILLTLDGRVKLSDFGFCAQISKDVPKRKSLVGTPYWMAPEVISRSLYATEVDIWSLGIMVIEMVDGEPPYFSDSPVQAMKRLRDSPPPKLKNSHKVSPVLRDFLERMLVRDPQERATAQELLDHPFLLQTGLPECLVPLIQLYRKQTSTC
Method: as §1

SGK3 = target: T2, SGK3 (Homo sapiens, UniProt Q96BR1); test: Kinome profiling SGK3; details: read-out: Inhibitory activity SGK3; for inhibition at 0.1 µM: 100 nM
T2 sequence (Q96BR1 1-496): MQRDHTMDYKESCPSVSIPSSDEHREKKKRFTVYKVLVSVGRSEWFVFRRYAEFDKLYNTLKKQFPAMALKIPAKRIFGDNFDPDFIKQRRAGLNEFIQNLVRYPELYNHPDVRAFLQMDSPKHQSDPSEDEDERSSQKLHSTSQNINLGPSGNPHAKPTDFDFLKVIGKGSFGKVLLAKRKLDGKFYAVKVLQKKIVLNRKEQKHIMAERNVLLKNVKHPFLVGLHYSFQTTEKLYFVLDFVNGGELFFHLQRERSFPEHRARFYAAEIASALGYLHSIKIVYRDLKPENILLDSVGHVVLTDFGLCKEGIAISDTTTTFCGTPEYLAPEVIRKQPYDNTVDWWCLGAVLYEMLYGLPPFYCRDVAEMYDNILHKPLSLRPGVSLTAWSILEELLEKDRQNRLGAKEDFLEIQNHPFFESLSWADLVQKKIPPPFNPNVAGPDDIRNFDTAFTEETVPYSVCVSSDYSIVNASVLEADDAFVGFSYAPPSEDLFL
Method: as §1

DAPK1 = DAPK1 (Homo sapiens, UniProt P53355); test: Kinome profiling DAPK1; details: read-out: Inhibitory activity DAPK1; for inhibition at 0.1 µM: 100 nM
Chain of DAPK1 (P53355 whole entry): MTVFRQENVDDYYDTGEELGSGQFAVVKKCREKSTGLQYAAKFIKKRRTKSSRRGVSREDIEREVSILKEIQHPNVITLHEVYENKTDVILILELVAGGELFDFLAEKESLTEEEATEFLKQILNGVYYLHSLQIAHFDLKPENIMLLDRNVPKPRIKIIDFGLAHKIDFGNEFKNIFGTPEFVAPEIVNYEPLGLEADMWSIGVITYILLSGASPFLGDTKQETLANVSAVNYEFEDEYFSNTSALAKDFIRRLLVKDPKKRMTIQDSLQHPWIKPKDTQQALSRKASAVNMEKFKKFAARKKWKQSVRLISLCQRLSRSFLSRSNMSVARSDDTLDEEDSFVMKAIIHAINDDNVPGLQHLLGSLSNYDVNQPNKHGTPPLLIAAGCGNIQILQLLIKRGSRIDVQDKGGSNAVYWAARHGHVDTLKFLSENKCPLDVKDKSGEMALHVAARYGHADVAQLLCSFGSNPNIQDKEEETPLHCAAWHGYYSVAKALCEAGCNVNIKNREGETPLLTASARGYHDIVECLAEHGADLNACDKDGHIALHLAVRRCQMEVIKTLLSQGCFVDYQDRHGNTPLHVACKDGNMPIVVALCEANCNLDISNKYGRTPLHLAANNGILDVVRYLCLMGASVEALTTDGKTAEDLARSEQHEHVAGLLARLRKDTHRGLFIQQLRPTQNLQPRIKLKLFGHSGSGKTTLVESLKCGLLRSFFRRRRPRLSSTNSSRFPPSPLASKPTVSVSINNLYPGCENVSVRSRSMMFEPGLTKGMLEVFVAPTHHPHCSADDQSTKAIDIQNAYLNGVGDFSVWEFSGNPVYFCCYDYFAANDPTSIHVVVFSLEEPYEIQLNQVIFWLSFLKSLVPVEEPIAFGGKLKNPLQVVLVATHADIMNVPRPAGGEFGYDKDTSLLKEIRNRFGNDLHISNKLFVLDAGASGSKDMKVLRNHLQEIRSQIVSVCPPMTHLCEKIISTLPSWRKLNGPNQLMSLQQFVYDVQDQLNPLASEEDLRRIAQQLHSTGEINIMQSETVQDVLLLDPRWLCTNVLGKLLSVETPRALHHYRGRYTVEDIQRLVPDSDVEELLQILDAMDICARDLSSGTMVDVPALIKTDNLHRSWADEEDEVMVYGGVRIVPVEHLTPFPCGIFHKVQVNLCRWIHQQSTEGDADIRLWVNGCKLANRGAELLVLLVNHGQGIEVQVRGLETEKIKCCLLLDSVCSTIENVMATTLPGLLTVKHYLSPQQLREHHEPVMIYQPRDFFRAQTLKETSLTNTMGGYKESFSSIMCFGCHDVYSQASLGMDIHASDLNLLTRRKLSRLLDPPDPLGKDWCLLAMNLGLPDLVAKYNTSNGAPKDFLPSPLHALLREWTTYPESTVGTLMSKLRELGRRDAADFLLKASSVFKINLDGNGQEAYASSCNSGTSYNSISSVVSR
Method: as §1

TYK2 = TYK2 (Homo sapiens, UniProt P29597); test: Kinome profiling TYK2; details: read-out: Inhibitory activity TYK2; for inhibition at 0.1 µM: 100 nM
Chain of TYK2 (P29597 whole entry): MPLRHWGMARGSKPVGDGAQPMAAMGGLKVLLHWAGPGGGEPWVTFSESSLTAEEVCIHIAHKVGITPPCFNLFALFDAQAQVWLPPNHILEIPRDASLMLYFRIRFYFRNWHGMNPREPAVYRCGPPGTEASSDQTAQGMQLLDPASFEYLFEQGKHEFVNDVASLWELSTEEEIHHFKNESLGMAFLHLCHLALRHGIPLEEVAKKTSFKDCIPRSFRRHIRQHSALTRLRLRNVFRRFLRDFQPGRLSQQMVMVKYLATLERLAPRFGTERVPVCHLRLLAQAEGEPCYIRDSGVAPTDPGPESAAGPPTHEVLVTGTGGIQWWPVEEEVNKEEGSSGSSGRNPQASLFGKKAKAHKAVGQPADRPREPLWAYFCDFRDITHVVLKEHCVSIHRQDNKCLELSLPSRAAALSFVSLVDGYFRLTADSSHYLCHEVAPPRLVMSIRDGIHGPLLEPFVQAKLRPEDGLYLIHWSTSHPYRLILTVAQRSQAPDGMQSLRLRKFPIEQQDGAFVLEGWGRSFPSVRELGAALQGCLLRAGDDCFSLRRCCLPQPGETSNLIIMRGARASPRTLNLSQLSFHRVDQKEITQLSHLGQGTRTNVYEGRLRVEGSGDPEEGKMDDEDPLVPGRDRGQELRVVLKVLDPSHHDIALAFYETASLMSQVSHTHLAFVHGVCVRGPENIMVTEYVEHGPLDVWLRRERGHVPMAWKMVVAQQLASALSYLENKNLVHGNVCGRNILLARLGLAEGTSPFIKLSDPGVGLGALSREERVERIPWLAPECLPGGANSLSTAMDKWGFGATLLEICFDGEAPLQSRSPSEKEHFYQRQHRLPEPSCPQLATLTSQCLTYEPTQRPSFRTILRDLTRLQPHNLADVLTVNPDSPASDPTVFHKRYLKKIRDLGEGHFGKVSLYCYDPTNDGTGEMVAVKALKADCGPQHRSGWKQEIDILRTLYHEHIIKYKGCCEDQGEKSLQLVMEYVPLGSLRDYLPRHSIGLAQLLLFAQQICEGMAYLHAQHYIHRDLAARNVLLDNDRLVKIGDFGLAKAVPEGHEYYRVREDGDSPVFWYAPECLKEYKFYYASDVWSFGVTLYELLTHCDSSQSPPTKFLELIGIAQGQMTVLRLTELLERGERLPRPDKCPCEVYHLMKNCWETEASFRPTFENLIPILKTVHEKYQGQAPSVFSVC
Method: as §1

SMILES | inhibition at 0.1 µM (MER) | inhibition at 1 µM (MER) | inhibition at 0.1 µM (CK1α) | inhibition at 1 µM (CK1α) | inhibition at 0.1 µM (RSK1) | inhibition at 1 µM (RSK1) | inhibition at 0.1 µM (NEK6) | inhibition at 1 µM (NEK6) | inhibition at 0.1 µM (PAK6) | inhibition at 1 µM (PAK6) | inhibition at 0.1 µM (SGK3) | inhibition at 1 µM (SGK3) | inhibition at 0.1 µM (DAPK1) | inhibition at 1 µM (DAPK1) | inhibition at 0.1 µM (TYK2) | inhibition at 1 µM (TYK2)
COc1cc(-c2cc(-c3ccc(N4CCNCC4)cc3)cnc2C)cc(OC)c1OC [Compound 10, 1-(4-(6-methyl-5-(3,4,5-trimethoxyphenyl)pyridin-3-yl)phenyl)piperazine] | 8% | 36% | 2% | 7% | 1% | 1% | 1% | 0% | 1% | 5% | 3% | 11% | -1% | -1% | 2% | 1%
COc1cc(-c2cc(-c3ccc(N4CCNCC4)cc3)cnc2N)cc(OC)c1OC [Compound 15, 5-(4-(piperazin-1-yl)phenyl)-3-(3,4,5-trimethoxyphenyl)pyridin-2-amine] | 30% | 76% | 5% | 18% | 1% | 5% | 0% | 4% | 5% | 3% | -8% | 3% | 1% | 0% | 0% | 0%
